# In publication PMC3601441 (Journal of medicinal chemistry, 2011):
# “And” between values parts separate entries of the source, which are not always exact repeats. Equal entries are not always repeated. Structures can show the parent of a compound that is named as a salt. Where two headings read alike, the source gives them in different places.
# Experiments:
# E. coli DXR (EcDXR) = E. coli DXR (EcDXR) (Escherichia coli, UniProt P45568); assay: biochemical; assay type: biochemical
# [1] = target: M. tuberculosis DXR (MtDXR) (Mycobacterium tuberculosis, UniProt P9WNS1); assay type: biochemical; details: for Ki: read-out: MtDXR Ki; for times less active against MtDXR than 1 and 2: compared with parent compounds 1 and 2
# P. falciparum = details: read-out: EC50 against P. falciparum; ref 8j; cited from earlier work
# MtDXR [2] = details: read-out: Km of substrate for MtDXR; ref 2d; cited from earlier work
# EcDXR = details: read-out: Km of substrate for EcDXR; cited from earlier work
# MtDXR [3] = details: read-out: MtDXR IC50; using […] of Mn2+; cited from earlier work
# [4] = background statement, no reference given; cited from earlier work
# DXR = details: read-out: DXR IC50; ref 9b; cited from earlier work
# Chain of M. tuberculosis DXR (MtDXR) (P9WNS1 whole entry, looked up): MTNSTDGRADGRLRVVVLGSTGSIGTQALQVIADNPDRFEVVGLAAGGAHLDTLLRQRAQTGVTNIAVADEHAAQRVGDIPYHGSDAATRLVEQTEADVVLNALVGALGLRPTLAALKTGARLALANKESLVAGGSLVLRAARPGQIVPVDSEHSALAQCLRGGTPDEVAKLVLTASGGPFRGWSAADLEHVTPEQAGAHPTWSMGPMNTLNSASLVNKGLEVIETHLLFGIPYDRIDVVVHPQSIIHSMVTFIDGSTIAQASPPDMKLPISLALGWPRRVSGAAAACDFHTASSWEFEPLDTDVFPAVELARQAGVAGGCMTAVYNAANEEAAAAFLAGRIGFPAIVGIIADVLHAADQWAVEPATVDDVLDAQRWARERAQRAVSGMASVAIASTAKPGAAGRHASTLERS
# Chain of E. coli DXR (EcDXR) (P45568 whole entry): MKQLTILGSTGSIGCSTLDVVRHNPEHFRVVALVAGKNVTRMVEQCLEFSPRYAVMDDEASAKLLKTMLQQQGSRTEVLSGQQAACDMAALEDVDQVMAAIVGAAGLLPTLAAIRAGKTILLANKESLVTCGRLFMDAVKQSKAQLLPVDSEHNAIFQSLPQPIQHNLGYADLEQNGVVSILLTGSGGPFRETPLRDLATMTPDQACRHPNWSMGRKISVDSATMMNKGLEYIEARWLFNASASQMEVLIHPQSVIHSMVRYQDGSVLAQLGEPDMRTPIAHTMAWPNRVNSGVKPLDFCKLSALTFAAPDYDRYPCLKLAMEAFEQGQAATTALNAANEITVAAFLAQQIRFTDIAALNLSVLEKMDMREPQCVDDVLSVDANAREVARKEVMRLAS
SMILES,Ki [1] [µM],Ki (E. coli DXR (EcDXR)) [µM],Ki (E. coli DXR (EcDXR); read-out: EcDXR Ki) [µM],other results
"O=P(O)(O)CCc1ccccn1 [Compound 12, 2-(Pyridin-2-yl)ethylphosphonic acid disodium salt]",> 100,,,times less potent than 8 against EcDXR (E. coli DXR (EcDXR); Ki ratio to compound 8): ~ 8 ×
"O=P(O)(O)Cc1cnccn1 [Compound 16, Pyrazin-2-ylmethylphosphonic acid disodium salt]",> 100,,,
"O=C(O)Cc1ccc(-c2ccccc2)cn1 [Compound 46, (5-Phenylpyridin-2-yl)acetic acid]",,> 49.7,,
O=P(O)(O)Cc1ccc(Cl)c(Cl)c1 [Compound 21],> 100,> 49.7,> 100,inhibitory activity against EcDXR (in words) (E. coli DXR (EcDXR); up to 100 μM): essentially no activity; inhibitory activity against MtDXR (in words) [1]: essentially no activity
"O=P(O)(O)CCc1ccccc1 [Compound 20, 2-Phenylethylphosphonic acid disodium salt]",> 100,> 49.7,> 100,
"O=S(=O)(O)Cc1ccc(-c2ccccc2)cn1 [Compound 48, 5-Phenylpyridin-2-ylmethanesulfonic acid sodium salt]",> 100,> 49.7,> 100,
"COc1cccc(-c2ccc(CP(=O)(O)O)nc2)c1 [Compound 37, 5-(3-Methoxyphenyl)pyridin-2-ylmethylphosphonic acid disodium salt]",> 100,,,
"O=c1cccc(CCP(=O)(O)O)[nH]1 [Compound 25, 2-(Pyridin-2-one-6-yl)ethylphosphonic acid disodium salt]",,> 49.7,,inhibitory activity against EcDXR (in words) (E. coli DXR (EcDXR); up to 100 μM): essentially inactive
"O=CN(O)CCC(c1ccc(Cl)c(Cl)c1)P(=O)(O)O (stereo not shown) [Compound 3, reference compound]",,,,affinity loss to MtDXR compared to EcDXR ([1]; Ki MtDXR vs Ki EcDXR): 21 fold; times less active against MtDXR than 1 and 2 [1]: ~ 10 ×; EC50 (P. falciparum): 0.09 µM
"O=P(O)(O)c1ccccc1 [Compound 18, Phenylphosphonic acid disodium salt]",> 100,> 49.7,> 100,
"O=P(O)(O)Cc1ccc(-c2ccc(Cl)cc2)cn1 [Compound 35, 5-(4-Chlorophenyl)pyridin-2-ylmethylphosphonic acid disodium salt]",> 100,,,
O=C(O)Cc1ccncc1 [Compound 42],> 100,> 49.7,> 100,
"O=P(O)(O)Cc1cc(-c2ccc(F)cc2)ccn1 [Compound 28, 4-(4-Fluorophenyl)pyridin-2-ylmethylphosphonic acid disodium salt]",> 100,,,
O=P(O)(O)Cc1cccc(O)c1O [Compound 23],> 100,> 49.7,> 100,inhibitory activity against EcDXR (in words) (E. coli DXR (EcDXR); up to 100 μM): no inhibitory activity
"O=C(Cc1ccc(-c2ccccc2)cn1)NO [Compound 47, N-hydroxy-(5-phenylpyridin-2-yl)acetamide]",,> 49.7,,
"O=P(O)(O)Cc1cccc(-c2ccccc2)n1 [Compound 33, (6-Phenylpyridin-2-yl)methylphosphonic acid disodium salt]",> 100,,,
"O=C(Cc1ccccn1)NO [Compound 44, N-hydroxy-(pyridin-2-yl)acetamide]",,> 49.7,,
O=P(O)(O)Cc1cccnc1 [Compound 14],> 100,,,
"O=C(O)c1ccc(-c2ccccc2)cn1 [Compound 45, 5-Phenylpyridine-2-carboxylic acid]",> 100,> 49.7,> 100,

SMILES,Ki [1] [µM],Ki (E. coli DXR (EcDXR)) [µM],Ki (E. coli DXR (EcDXR); read-out: EcDXR Ki) [µM],other results
"O=P(O)(O)Cc1ccc(OCc2ccccc2)cn1 [Compound 31, (5-Benzyloxypyridin-2-yl)methylphosphonic acid disodium salt]",> 100,> 49.7,> 100,inhibitory activity against EcDXR (in words) (E. coli DXR (EcDXR)): inactive
"CC(=O)N(O)CCC(c1ccc(Cl)c(Cl)c1)P(=O)(O)O (stereo not shown) [Compound 4, reference compound]",,,,affinity loss to MtDXR compared to EcDXR ([1]; Ki MtDXR vs Ki EcDXR): 42 fold; times less active against MtDXR than 1 and 2 [1]: ~ 10 × and 10 ×; EC50 (P. falciparum): 0.25 µM
O=C(O)c1ccccn1 [Compound 39],> 100,> 49.7,> 100,
"O=P(O)(O)CCCc1ccccn1 [Compound 13, 3-(Pyridin-2-yl)propylphosphonic acid disodium salt]",> 100,,,times less potent than 8 against EcDXR (E. coli DXR (EcDXR); Ki ratio to compound 8): ~4 ×
"O=C(NO)c1ccccn1 [Compound 43, N-hydroxy-pyridine-2-carboxamide]",,> 49.7,,
"CC(=O)N(O)CCCP(=O)(O)O [Compound 2, FR900098, reference compound]",,,,times weaker binding / less active against MtDXR than EcDXR [1]: ~ 6 ×
"O=P(O)(O)CCc1ccccc1O [Compound 22, 2-(2-Hydroxyphenyl)ethylphosphonic acid disodium salt]",> 100,> 49.7,> 100,inhibitory activity against EcDXR (in words) (E. coli DXR (EcDXR); up to 100 μM): no inhibitory activity
O=C(O)Cc1ccccn1 [Compound 40],> 100,> 49.7,> 100,
"Cc1ccc(-c2ccc(CP(=O)(O)O)nc2)cc1 [Compound 36, 5-(4-Methylphenyl)pyridin-2-ylmethylphosphonic acid disodium salt]",> 100,,,
"O=P(O)(O)C(Nc1ccc(Cl)cn1)P(=O)(O)O [Compound 6, reference compound]",> 100,,,times weaker binding / less active against MtDXR than EcDXR [1]: > 5 ×
"O=P(O)(O)Cc1ccc(-c2ccccc2)cn1 [Compound 9, 5-phenylpyridin-2-ylmethylphosphonic acid]",,,,times as potent as 8 against EcDXR (E. coli DXR (EcDXR)): 5 ×; affinity loss to MtDXR compared to EcDXR ([1]; Ki MtDXR vs Ki EcDXR): 7 fold
"O=c1ccc(CP(=O)(O)O)cn1O [Compound 24, 5-(1-Hydroxy-pyridin-2-one)methylphosphonic acid disodium salt]",,> 49.7,,inhibitory activity against EcDXR (in words) (E. coli DXR (EcDXR); up to 100 μM): essentially inactive
"O=P(O)(O)c1ccccn1 [Compound 11, Pyridin-2-ylphosphonic acid disodium salt]",> 100,> 49.7,> 100,inhibitory activity against EcDXR (in words) (E. coli DXR (EcDXR); up to 100 μM): essentially no activity
"CC(=O)[C@@H](O)[C@H](O)COP(=O)(O)O [DXP, 1-deoxy-D-xylulose-5-phosphate]",,,,Km (MtDXR [2]): 47.1 µM; Km (EcDXR): 99 µM
"O=CN(O)CCCP(=O)(O)O [Compound 1, Fosmidomycin]",,,,times weaker binding / less active against MtDXR than EcDXR ([1]; Ki MtDXR vs Ki EcDXR): ~ 5 × and 5 ×; EC50 (P. falciparum): 1.1 µM; IC50 (MtDXR [3]): 0.08 µM; half-life in plasma [4]: ~ 1 h; oral availability [4]: poor oral availability
"O=c1ccc(-c2ccccc2)cn1O [Compound 7, reference compound]",,,,times weaker binding / less active against MtDXR than EcDXR ([1]; Ki MtDXR vs Ki EcDXR): 31 ×; IC50 (DXR): 1.4 µM
"O=P(O)(O)Cc1ccccc1 [Compound 19, Benzylphosphonic acid disodium salt]",> 100,> 49.7,> 100,
"O=P(O)(O)Cc1ccc(O)cn1 [Compound 30, (5-Hydroxylpyridin-2-yl)methylphosphonic acid disodium salt]",,,,times as potent as 8 against EcDXR (E. coli DXR (EcDXR); Ki ratio to compound 8): ~ 3 ×
O=C(O)Cc1cccnc1 [Compound 41],> 100,> 49.7,> 100,
